ChEMBL document CHEMBL4033684, “Development of nonsteroidal glucocorticoid receptor modulators based on N-benzyl-N-(4-phenoxyphenyl)benzenesulfonamide scaffold” (Bioorg Med Chem, 2017)
Calls of active or inactive are those of the source. No cut-off for these calls is given here.

Key:
Format in all cases: cell-based
[1] = target: T1, Glucocorticoid receptor (Homo sapiens) (UniProt P04150); test: Transrepression of human GRalpha expressed in HEK293 cells co-expressing pGL4.32 assessed as inhibition of TNFalpha-stimulated NF-kB activity at 30 uM preincubated for 4 hrs followed by TNFalpha addition measured after 3 hrs by luciferase reporter gene assay relative to control
T1 sequence (whole entry): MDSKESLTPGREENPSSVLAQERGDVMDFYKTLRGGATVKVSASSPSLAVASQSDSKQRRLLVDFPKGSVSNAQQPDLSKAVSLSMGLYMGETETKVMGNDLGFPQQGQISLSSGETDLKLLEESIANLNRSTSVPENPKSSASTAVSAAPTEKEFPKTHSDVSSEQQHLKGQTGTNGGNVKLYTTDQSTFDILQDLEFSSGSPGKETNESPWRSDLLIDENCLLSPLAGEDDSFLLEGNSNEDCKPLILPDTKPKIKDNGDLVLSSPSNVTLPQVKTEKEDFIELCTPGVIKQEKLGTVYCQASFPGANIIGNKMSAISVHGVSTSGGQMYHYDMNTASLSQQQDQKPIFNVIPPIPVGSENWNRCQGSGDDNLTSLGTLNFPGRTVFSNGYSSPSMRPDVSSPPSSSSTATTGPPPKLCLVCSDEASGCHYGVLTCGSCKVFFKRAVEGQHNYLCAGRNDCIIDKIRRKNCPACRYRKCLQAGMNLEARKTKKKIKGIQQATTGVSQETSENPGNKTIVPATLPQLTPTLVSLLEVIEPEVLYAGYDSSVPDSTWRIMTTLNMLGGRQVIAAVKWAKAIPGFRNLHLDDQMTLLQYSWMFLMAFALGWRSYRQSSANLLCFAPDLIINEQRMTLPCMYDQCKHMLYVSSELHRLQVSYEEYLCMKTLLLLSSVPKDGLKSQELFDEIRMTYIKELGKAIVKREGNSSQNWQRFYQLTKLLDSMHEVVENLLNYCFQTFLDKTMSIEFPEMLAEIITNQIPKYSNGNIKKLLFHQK

[2] = target: T2, Estrogen receptor (Homo sapiens) (UniProt P03372); test: Antagonist activity at human GAL4-fused ERalpha LBD expressed in HEK293 cells at 30 uM after 24 hrs by luciferase reporter gene assay
T2 sequence (whole entry): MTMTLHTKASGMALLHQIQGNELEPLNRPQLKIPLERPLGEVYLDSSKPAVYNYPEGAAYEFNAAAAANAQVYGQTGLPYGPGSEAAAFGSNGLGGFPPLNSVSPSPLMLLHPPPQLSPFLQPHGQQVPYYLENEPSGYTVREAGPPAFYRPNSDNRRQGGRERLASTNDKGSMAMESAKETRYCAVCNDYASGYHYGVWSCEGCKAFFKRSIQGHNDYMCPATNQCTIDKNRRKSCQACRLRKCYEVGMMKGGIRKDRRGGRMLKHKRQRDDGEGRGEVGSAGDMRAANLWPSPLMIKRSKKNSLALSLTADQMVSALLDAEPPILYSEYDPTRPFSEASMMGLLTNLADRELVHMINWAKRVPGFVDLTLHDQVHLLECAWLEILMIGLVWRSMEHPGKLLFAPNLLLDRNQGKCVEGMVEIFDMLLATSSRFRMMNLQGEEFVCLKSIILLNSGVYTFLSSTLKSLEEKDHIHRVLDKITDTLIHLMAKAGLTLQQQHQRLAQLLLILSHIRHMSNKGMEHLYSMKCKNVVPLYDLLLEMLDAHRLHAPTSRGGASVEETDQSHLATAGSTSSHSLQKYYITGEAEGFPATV

Glucocorticoid receptor [3] = target: T3, Glucocorticoid receptor (Homo sapiens, UniProt P04150); test: Antagonist activity at human GRalpha expressed in HEK293 cells assessed as inhibition of dexamethasone-induced response after 24 hrs by luciferase reporter gene assay
T3 sequence (P04150 whole entry): T1 sequence (whole entry)

Progesterone receptor = target: T4, Progesterone receptor (Homo sapiens, UniProt P06401); test: Antagonist activity at PR in human T47D cells assessed as inhibition of progesterone-induced response after 24 hrs by alkaline phosphatase assay
T4 sequence (P06401 whole entry): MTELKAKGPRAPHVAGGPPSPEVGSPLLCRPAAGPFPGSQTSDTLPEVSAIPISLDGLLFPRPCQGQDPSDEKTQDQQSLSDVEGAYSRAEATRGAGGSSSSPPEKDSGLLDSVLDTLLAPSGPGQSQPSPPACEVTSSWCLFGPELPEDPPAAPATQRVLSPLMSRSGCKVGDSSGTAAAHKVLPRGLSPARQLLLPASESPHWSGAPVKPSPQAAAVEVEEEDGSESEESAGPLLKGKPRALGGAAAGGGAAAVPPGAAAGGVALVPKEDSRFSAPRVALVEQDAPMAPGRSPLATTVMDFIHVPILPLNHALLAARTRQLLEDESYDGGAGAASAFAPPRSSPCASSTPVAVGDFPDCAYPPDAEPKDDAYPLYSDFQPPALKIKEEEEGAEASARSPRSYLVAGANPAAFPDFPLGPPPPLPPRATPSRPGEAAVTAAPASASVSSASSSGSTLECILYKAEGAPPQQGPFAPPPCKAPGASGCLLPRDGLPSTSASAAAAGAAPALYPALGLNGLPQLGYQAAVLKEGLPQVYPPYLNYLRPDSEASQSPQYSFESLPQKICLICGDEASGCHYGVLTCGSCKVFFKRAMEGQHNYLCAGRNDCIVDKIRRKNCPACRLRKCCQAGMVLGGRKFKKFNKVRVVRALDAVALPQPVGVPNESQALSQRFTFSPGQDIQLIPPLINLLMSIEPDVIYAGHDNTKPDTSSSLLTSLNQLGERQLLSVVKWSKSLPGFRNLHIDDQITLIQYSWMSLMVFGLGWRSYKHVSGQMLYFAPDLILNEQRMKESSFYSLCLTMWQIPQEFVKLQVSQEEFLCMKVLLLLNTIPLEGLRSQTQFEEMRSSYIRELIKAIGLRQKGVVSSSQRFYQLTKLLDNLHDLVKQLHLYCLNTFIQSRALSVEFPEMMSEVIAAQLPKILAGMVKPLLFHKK

[4] = target: T5, Androgen receptor (Homo sapiens) (UniProt P10275); test: Antagonist activity at human AR expressed in HEK293 cells at 30 uM after 24 hrs by luciferase reporter gene assay
T5 sequence (whole entry): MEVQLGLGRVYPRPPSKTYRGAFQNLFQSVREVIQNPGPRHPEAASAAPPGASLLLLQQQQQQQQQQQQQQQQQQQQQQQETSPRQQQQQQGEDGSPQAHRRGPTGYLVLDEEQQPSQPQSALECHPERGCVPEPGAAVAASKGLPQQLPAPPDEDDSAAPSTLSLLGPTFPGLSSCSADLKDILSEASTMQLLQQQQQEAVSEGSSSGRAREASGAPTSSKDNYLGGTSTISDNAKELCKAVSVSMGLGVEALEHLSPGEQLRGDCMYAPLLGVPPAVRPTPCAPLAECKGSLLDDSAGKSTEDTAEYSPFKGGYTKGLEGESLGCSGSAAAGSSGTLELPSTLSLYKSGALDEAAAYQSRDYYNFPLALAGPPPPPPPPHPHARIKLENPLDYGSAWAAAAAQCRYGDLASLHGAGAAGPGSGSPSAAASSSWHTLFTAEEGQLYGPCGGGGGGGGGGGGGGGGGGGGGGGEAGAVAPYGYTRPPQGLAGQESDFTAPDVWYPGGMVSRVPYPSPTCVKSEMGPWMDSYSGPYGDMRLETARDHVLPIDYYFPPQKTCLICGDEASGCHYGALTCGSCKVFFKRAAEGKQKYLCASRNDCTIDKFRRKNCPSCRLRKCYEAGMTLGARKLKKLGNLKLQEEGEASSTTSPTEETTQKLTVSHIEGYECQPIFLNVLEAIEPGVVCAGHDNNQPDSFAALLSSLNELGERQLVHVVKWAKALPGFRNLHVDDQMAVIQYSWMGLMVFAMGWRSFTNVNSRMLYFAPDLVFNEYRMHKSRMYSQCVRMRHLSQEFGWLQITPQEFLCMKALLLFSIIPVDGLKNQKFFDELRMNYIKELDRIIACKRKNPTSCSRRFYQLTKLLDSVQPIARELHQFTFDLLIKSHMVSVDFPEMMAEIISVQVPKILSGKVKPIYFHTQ

Glucocorticoid receptor [5] = target: T3, Glucocorticoid receptor; test: Transactivation of human GRalpha expressed in HEK293 cells after 24 hrs by luciferase reporter gene assay; conditions: hek293, 24 h
[6] = target: Estrogen receptor beta (Homo sapiens) (UniProt Q92731); test: Antagonist activity at human GAL4-fused ERbeta LBD expressed in HEK293 cells at 30 uM after 24 hrs by luciferase reporter gene assay
Estrogen receptor beta (Homo sapiens), sequence (Q92731 whole entry, the tested form may be a part): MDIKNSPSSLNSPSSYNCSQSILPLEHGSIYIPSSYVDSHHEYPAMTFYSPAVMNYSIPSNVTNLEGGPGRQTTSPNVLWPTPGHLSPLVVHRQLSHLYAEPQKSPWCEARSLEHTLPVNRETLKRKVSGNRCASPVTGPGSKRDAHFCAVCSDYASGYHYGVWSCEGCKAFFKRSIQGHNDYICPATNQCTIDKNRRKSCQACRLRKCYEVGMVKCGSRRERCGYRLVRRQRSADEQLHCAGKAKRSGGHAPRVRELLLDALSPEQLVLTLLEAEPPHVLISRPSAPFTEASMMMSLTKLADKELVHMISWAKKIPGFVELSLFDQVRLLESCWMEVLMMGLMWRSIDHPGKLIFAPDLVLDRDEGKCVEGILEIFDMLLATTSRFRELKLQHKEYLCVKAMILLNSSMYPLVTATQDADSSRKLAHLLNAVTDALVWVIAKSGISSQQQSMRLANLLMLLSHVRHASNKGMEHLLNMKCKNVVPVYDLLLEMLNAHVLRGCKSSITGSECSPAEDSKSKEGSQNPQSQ

For `N#Cc1ccc(S(=O)(=O)N(Cc2ccccc2)c2ccc(Oc3ccccc3)cc2)cc1`, the inhibition [1] was “inactive”, the inhibition [2] was “inactive” and the IC50 (Glucocorticoid receptor [3]) was 1.43 µM. The IC50 (Progesterone receptor) was 8 µM, the inhibition [4] was “inactive” and the Activity (Glucocorticoid receptor [5]) was “Not Active”. The inhibition [6] was “inactive”.
